The target of series [1] is T1, Tricarboxylate transport protein, mitochondrial (Homo sapiens, UniProt P53007). In words: Inhibition of SLC25A1 (unknown origin) at 1 uM relative to control.
Target sequence in this assay (P53007 14-311 limits assumed): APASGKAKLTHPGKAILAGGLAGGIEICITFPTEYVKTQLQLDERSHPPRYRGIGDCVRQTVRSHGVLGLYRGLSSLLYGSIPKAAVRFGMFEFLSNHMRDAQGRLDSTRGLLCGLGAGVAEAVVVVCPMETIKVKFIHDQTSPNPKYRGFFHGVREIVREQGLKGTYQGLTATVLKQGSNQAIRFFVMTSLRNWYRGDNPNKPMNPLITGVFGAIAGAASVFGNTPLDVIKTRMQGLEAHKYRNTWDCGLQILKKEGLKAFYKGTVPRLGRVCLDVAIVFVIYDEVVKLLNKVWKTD
Series [2] deals with T2, ATP-citrate synthase (Homo sapiens, UniProt P53396).
T2 sequence (P53396 whole entry): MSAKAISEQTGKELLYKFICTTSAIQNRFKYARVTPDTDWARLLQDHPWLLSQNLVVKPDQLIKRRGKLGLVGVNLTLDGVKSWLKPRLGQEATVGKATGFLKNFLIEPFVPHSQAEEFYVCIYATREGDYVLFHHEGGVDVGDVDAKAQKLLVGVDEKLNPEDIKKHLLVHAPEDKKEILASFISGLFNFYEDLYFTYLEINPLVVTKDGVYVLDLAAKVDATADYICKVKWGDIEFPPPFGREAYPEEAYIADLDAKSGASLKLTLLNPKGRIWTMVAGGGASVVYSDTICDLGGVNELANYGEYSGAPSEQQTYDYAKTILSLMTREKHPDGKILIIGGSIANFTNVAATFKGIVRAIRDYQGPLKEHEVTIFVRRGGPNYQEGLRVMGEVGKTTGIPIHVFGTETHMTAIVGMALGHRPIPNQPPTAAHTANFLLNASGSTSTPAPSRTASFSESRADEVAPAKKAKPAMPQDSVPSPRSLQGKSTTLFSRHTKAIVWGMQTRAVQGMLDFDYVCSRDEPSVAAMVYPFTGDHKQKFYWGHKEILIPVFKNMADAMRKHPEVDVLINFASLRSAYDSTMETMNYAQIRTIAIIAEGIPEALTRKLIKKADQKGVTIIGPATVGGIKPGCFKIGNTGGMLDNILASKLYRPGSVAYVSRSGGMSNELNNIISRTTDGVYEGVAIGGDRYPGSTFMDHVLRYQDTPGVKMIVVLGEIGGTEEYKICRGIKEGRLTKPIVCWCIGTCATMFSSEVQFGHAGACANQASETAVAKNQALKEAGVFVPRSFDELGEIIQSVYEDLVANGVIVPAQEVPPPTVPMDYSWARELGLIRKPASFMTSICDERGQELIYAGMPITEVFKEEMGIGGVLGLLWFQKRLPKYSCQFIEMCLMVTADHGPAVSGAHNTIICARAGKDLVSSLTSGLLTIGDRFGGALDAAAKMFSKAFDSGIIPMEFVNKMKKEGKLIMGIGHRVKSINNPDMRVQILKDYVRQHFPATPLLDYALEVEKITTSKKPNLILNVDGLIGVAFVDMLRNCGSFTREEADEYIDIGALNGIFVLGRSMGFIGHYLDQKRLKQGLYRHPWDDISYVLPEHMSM
In words: Binding affinity to ACLY (unknown origin) assessed as inhibition constant.

The target in series [3] is T2, ATP-citrate synthase.
Series [4] can be described thus: in vitro. The note with it: human, liver microsomes. For orientation: Liver microsomes are a subcellular fraction often used to study metabolism.
The target in series [5] is T2, ATP-citrate synthase. The source holds these as a separate data set.
Series [6] in a line: Metabolic stability in rat liver microsomes assessed as half life. The format is ADME, Microsome.
Series [7] has as its system HeLa. In words: Antiproliferative activity against human HeLa cells assessed as inhibition of cell growth measured after 24 hrs. The format is functional, cell-based.
In series [8] the target is T1, Tricarboxylate transport protein, mitochondrial. In words: Inhibition of human SLC25A1 at 1 uM relative to control.
Target sequence in this assay (P53007 14-311 limits assumed): as the sequence (P53007 14-311 limits assumed) above
The target is the same in series [9]. In words: Binding affinity to human SLC25A1 assessed as inhibition constant.
Target sequence in this assay (P53007 whole entry): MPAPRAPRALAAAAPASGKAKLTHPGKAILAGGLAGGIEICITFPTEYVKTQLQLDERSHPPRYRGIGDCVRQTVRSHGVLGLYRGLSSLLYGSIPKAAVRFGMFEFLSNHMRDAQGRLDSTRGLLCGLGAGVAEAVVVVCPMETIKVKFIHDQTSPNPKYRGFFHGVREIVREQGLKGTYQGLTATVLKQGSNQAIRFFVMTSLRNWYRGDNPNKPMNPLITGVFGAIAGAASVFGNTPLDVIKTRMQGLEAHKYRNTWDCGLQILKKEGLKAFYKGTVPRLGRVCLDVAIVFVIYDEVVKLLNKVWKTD
A short description of series [10]: Inhibition of mouse mINDY in HEK293 cells. It is filed as cell-based.
The target of series [11] is T3, Na(+)/dicarboxylate cotransporter 3 (Homo sapiens, UniProt Q8WWT9).
T3 sequence (Q8WWT9 whole entry): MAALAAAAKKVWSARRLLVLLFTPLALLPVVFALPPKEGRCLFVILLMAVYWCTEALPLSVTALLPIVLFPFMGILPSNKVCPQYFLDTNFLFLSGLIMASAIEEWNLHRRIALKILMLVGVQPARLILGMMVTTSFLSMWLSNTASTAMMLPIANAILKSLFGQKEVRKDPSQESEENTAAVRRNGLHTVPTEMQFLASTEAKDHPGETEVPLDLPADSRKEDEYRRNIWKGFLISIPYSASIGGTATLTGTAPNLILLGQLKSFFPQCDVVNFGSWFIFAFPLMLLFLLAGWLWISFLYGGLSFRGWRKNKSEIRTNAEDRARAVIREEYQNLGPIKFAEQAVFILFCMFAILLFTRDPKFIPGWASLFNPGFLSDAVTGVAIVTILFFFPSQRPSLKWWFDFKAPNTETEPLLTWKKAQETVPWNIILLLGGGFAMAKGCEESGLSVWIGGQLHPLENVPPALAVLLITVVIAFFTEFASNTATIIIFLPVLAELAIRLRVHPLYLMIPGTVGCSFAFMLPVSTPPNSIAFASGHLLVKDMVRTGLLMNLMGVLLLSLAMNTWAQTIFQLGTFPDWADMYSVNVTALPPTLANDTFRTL
In words: Inhibition of human SLC13A3 in HepG2 cells by measuring […] uptake. It is filed as cell-based.

The target in series [12] is T2, ATP-citrate synthase. This is another data set of the same source.
Series [13] concerns the target Na(+)/citrate cotransporter (Homo sapiens, UniProt Q86YT5). In words: Inhibition of recombinant human SLC13A5 in HEK293T cells. The format is cell-based.
The target of series [14] is T4, ATP-citrate synthase (Rattus norvegicus, UniProt P16638).
T4 sequence (P16638 whole entry): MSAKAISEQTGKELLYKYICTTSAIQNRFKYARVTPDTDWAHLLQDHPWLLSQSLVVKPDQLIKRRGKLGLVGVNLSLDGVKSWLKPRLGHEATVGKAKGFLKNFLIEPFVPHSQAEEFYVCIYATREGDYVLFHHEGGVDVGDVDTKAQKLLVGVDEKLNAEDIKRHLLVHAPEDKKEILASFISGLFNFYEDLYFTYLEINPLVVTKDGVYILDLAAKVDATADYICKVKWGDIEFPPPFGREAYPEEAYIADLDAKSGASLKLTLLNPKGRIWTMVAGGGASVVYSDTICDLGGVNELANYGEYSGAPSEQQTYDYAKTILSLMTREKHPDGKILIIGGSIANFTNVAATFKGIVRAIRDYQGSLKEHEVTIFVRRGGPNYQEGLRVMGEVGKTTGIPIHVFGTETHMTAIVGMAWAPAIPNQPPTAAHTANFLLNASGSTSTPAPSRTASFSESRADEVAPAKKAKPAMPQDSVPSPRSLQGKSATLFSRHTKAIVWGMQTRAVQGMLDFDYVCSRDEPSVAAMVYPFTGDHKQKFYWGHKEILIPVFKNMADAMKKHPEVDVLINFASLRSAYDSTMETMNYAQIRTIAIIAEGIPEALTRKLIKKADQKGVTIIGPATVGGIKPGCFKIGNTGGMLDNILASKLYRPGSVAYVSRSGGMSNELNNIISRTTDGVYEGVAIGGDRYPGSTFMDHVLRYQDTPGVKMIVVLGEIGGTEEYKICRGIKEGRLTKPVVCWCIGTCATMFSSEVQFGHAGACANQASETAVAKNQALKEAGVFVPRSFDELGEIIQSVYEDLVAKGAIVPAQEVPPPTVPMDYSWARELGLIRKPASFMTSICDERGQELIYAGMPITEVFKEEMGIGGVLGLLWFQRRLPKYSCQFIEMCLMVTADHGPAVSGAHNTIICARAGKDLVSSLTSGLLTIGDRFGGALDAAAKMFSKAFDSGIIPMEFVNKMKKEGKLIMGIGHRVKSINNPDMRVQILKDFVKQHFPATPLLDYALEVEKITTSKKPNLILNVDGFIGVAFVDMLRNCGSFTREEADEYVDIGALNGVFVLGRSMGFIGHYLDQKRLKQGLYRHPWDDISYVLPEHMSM
In words: Binding affinity to rat ACLY assessed as inhibition constant measured after 20 mins.

Where only a bound is given, the exact number is not on record here.

Chain of Na(+)/citrate cotransporter (Q86YT5 whole entry): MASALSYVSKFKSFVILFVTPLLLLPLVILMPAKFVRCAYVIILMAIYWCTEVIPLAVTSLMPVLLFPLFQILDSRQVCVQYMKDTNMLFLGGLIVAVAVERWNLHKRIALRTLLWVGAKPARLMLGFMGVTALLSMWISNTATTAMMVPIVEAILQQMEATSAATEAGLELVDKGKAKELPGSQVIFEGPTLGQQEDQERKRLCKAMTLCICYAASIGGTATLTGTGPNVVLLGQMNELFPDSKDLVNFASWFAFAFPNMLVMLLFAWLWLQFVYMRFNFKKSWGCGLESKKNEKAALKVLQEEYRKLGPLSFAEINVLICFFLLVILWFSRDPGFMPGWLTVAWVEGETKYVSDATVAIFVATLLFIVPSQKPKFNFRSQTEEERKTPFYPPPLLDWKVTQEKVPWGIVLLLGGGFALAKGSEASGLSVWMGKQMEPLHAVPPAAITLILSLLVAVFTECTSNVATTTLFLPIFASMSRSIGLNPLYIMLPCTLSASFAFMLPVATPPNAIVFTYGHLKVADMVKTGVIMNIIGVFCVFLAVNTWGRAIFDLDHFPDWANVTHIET

In the case of `O=C(O)c1cccc(C(=O)O)c1C(=O)O`, the inhibition in [1] turned out to be 95%.
Regarding `O=C(O)C[C@](O)(C[C@H](O)CCCCCCc1ccc(Cl)cc1Cl)C(=O)O`, the inhibition constant Ki in series [2] is 1 µM.
For the compound `COC(=O)c1cc(Cl)c(O)c(S(=O)(=O)Nc2cc(-c3ccccc3)c(F)cc2F)c1`, 0.0021 µM corresponded to half-maximal inhibition in [3] (IC50). Also, the inhibition constant (Ki) in series [2] is 0.007 µM. The half-life in series [4] came to 0.056 h. In [5], this compound showed a Kd of 0.0022 µM.
The compound `O=C1NCc2ccccc2-c2cc(c(F)cc2F)NS(=O)(=O)c2cc1cc(Cl)c2O` had a half-life in series [4] of 8.85 h.
In the case of `[2H]C([2H])(CCCCC(C)(C)C(=O)O)C([2H])(O)C([2H])([2H])CCCCC(C)(C)C(=O)O`, the half-life in series [6] was greater than 2.42 h.
Turning to `O=C(O)CC(O)(CCCCCCCCc1ccc(Cl)cc1Cl)C(=O)O` (stereo unspecified), in series [2], the Ki was determined as 1.2 µM.
For `O=c1c(O)c(-c2ccc(O)cc2)oc2c(O)c(O)cc(O)c12` [HERBACETIN], in series [7], the IC50 amounted to 0.5 µM.
`O=C(O)CC(O)(CC(=O)CCCCCCc1ccc(Cl)cc1Cl)C(=O)O` (stereo unspecified): the inhibition constant (Ki) in [2] was 1.2 µM.
In the case of `O=C(O)CC(CSCCCCCCc1ccc(Cl)cc1Cl)C(=O)O` (stereo unspecified), in [2], the inhibition constant (Ki) amounted to 1.2 µM.
In the case of `O=C(O)c1ccc(Cl)c(S(=O)(=O)Nc2cccc([N+](=O)[O-])c2)c1`, the inhibition in series [8] and in series [1] was 84.7% throughout. Also, in series [9], the Ki stood at 48 µM.
Consider `C[C@@H]1C[C@H]2O[C@@H]2/C=C\C=C\C(=O)Cc2c(Cl)c(O)cc(O)c2C(=O)O1` [RADICICOL], for which the inhibition constant Ki in series [2] was 13 µM.
Take `O=C(Nc1cc(Cl)cc(C(F)(F)F)c1)OCCC(F)(F)F`: the IC50 came to 0.18 µM in series [10] and 0.16 µM in series [11].
Regarding `[2H]C(O)(CCCCCC(C(=O)O)(C([2H])([2H])[2H])C([2H])([2H])[2H])CCCCCC(C(=O)O)(C([2H])([2H])[2H])C([2H])([2H])[2H]`, the half-life in series [6] was greater than 2.42 h.
For the compound `CC(C)(CCCC/C=C/CCCCCC(C)(C)C(=O)O)C(=O)O`, the half-maximal inhibitory concentration (IC50) in [12] stood at 5.31 µM.
Take `[2H]C(O)(CCCCCC(C)(C)C(=O)O)CCCCCC(C)(C)C(=O)O`: the half-life in series [6] was greater than 2.42 h.
On to `[2H]C([2H])(CCCCC(C)(C)C(=O)O)C(O)C([2H])([2H])CCCCC(C)(C)C(=O)O`, for which, in series [6], the half-life was greater than 2.42 h.
On to `Cc1nc(OC(F)F)ccc1C(C)N1CCc2c(C#N)c(Cl)nc(NCC#N)c2C1` (stereo unspecified), for which the IC50 in series [13] and in series [11] was less than 0.05 µM in each case.
For the compound `O=C(O)CC(O)(CSCCCCCCc1ccc(Cl)cc1Cl)C(=O)O` (stereo unspecified), the Ki in series [2] came to 1.2 µM.
As to `O=C(O)C[C@@]1(O)C[C@@H](Cc2ccc(Cl)cc2Cl)OC1=O`, the inhibitory constant (Ki) in series [14] was 1 µM.

Usually inhibition stands for the change of the read-out against control, counted positive when it falls. The low end stands for a weak effect, the high end for a strong effect. The term Ki denotes a measure of affinity in units of concentration, obtained from inhibition or displacement. As a reminder, the IC50 is the concentration that inhibits the measured activity by half. A word on the half-life: it is how long it takes for the measured level to halve. By Kd is commonly meant the concentration at which binding is half-saturated.

For the origin of these results see ChEMBL document CHEMBL5346956, “Opportunities and Challenges for Inhibitors Targeting Citrate Transport and Metabolism in Drug Discovery” (J Med Chem, 2023).
